Laboratory results from patent US20260355192A1, “PROPHYLACTIC OR THERAPEUTIC AGENT FOR PERIOSTIN-MEDIATED DISEASE AND PRURITUS ASSOCIATED THEREWITH” (SAGA UNIVERSITY, priority 2022, published 2026).

How the values were obtained:
[1] = system: scratching behaviors in FADS mice; assay: Scratching behaviors in FADS mice upon repeated percutaneous administration of CP4715; assay type: in vivo, mouse (FADS, Nestin-cre/Ikk2ff); settings: 30 μL of 26.85 mM solution externally applied once a day for 28 days to facial rash lesions; FIG. 7
Source text: (§1) Nestin-cre transgenic mice were crossed with IKK2^ff mice to prepare Nestin-cre/Ikk2^ff mice specifically lacking IKK2 in their facial skin fibroblasts (Nunomura S, et al. J Invest Dermatol. 139:1274-1283, 2019). These mice inevitably develop atopic dermatitis-like rash limited to the face and intense itchy symptoms, and were therefore designated as Facial Atopic Dermatitis with Scratching (FADS) mice. […] For evaluation of the prophylactic or therapeutic agent of the present invention, FADS mice at 3 to 4 weeks of age or older were used because of showing spontaneous scratching behaviors. It should be noted that in this Example section, the above compound of formula (I) (more particularly “CP4715”) was used as the prophylactic or therapeutic agent of the present invention.
(§2) FADS mice were acclimated for 20 minutes to the environment of a recording cage, and then recorded with a video camera. The recorded videos were replayed, and scratching behaviors were counted assuming that hind paw scratching to the face and the subsequent movement of toe licking or paw lowering to the ground were regarded as one cycle of scratching behavior.
CP4715 was dissolved in a diluent (5% DMSO/15% N-methyl-2-pyrrolidone/80% ethanol) to prepare a 26.85 mM solution. […] Before administration and on Days 3, 7, 14, 21 and 28 of administration, the number of scratchings during 60 minutes was counted for evaluation.

[2] = system: scratching behaviors in FADS mice; assay: Scratching behaviors in FADS mice upon repeated systemic administration of CP4715; assay type: in vivo, mouse (FADS, Nestin-cre/Ikk2ff); settings: at 1 week and 2 weeks after administration; 107.4 μmol/kg twice a day under the dorsal skin; Mann-Whitney's U-test vs diluent control; FIG. 1
Source text: as §1
FADS mice were acclimated for 20 minutes to the environment of a recording cage, and then recorded with a video camera. The recorded videos were replayed, and scratching behaviors were counted assuming that hind paw scratching to the face and the subsequent movement of toe licking or paw lowering to the ground were regarded as one cycle of scratching behavior. […]
At 1 week and 2 weeks after drug administration, the mice were recorded for 60 minutes and analyzed to calculate the number of scratchings per minute for evaluation. […]

[3] = biological target: T1, integrin αvβ3 (Homo sapiens, UniProt P05106+P06756); assay: Inhibition of periostin-dependent adhesion of SW480 cells expressing integrin αvβ3; assay type: cell-based; settings: immobilized recombinant human periostin, FIG. 6
T1 construct: SW480 cells, a human colon cancer cell line not expressing integrin β3; expressed in transfected cells; host or cells: SW480 cells (human colon cancer) stably expressing human integrin β3
Method: For use in cell adhesion experiments, SW480 cells, a human colon cancer cell line not expressing integrin β3, were genetically engineered to stably express human integrin β3 (Nanri Y, et al. Am J Respir Cell Mol Biol. 62:204-216, 2020). The compounds shown in Table 1 were examined for their inhibitory activity against adhesion between integrin αvβ3 and periostin according to the following procedures. First, a 96-well plate was treated with 10 μg/mL recombinant human periostin (Bio-Techne) at 4 °C for 16 hours to immobilize periostin. The SW480 cells expressing integrin αvβ3 (5×10^4 cells) were reacted at room temperature for 15 minutes with the above compounds at 0.001, 0.01, 0.1 and 1 μM in serum-free DMEM (Dulbecco's Modified Eagle Medium) containing 0.5% bovine serum albumin and 0.25 mM MnCl2. A group receiving no compound was used as a control. The reacted cell suspensions were added to separate wells of the above human periostin-immobilized plate, and the plate was centrifuged at 10×g for 5 minutes and then cultured at 37 °C for 60 minutes. Then, after the adhered cells were washed to remove unbound cells, the adhered cells were fixed with 1% formaldehyde and stained with 0.5% crystal violet. The fixed and stained cells were solubilized with 0.2% Triton X-100 and measured for absorbance at 595 nm. The absorbance of the control (i.e., the group receiving no compound) was set to 0% inhibition. […] Cell adhesion in this test system is periostin-dependent, and a compound inhibiting this cell adhesion can be referred to as a periostin receptor antagonist.

[4] = system: glycoprotein (GP) IIb/IIIa receptor; settings: cited from earlier work
[5] = system: scratching behaviors in FADS mice; assay: Scratching behaviors in FADS mice upon single systemic administration of CP4715; assay type: in vivo, mouse (FADS, Nestin-cre/Ikk2ff); settings: 53.7 μmol/kg i.p., FIG. 2
Source text: Nestin-cre transgenic mice were crossed with IKK2^ff mice to prepare Nestin-cre/Ikk2^ff mice specifically lacking IKK2 in their facial skin fibroblasts (Nunomura S, et al. J Invest Dermatol. 139:1274-1283, 2019). These mice inevitably develop atopic dermatitis-like rash limited to the face and intense itchy symptoms, and were therefore designated as Facial Atopic Dermatitis with Scratching (FADS) mice. […] For evaluation of the prophylactic or therapeutic agent of the present invention, FADS mice at 3 to 4 weeks of age or older were used because of showing spontaneous scratching behaviors. […]
as §2
Prior to CP4715 administration, FADS mice were recorded for 60 minutes and then allowed to rest for 30 minutes. […] Mice administered with 0.3 mL of PBS containing an equal amount of the diluent as calculated based on the body weight were used as a control group.
The mice were recorded for 80 minutes immediately after drug administration. […]

[6] = system: αvβ3 integrin; settings: cited from earlier work

T1 sequence (P06756 31-889 limits assumed): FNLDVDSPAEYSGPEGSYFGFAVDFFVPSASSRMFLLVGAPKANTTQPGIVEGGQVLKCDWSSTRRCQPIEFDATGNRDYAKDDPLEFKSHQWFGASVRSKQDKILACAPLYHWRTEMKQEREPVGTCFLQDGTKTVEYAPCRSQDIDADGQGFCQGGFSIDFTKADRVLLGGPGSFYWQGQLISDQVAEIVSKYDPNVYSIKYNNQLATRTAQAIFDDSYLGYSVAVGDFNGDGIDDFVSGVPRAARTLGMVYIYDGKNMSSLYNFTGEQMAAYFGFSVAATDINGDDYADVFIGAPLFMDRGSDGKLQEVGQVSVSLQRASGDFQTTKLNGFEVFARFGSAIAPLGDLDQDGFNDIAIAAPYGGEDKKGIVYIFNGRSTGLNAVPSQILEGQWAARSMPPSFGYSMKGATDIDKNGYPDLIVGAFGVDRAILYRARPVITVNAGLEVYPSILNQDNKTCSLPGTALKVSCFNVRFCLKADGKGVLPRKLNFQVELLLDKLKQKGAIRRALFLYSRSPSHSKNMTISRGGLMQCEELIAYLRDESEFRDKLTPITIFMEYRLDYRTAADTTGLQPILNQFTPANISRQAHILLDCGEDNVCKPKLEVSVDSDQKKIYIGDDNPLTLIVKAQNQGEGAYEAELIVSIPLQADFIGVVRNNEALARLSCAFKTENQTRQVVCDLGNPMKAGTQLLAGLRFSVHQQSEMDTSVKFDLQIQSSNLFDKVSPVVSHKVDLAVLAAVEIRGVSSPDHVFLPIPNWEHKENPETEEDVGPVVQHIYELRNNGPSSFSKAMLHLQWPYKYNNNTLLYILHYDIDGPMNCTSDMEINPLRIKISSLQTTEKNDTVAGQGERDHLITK
T1 sequence (P06756 891-1048 partner limits assumed): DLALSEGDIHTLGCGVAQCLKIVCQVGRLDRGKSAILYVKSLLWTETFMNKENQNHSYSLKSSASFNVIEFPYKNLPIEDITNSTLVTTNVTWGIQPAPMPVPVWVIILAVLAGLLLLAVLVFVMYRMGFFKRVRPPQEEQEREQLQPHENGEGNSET
T1 sequence (P05106 27-788): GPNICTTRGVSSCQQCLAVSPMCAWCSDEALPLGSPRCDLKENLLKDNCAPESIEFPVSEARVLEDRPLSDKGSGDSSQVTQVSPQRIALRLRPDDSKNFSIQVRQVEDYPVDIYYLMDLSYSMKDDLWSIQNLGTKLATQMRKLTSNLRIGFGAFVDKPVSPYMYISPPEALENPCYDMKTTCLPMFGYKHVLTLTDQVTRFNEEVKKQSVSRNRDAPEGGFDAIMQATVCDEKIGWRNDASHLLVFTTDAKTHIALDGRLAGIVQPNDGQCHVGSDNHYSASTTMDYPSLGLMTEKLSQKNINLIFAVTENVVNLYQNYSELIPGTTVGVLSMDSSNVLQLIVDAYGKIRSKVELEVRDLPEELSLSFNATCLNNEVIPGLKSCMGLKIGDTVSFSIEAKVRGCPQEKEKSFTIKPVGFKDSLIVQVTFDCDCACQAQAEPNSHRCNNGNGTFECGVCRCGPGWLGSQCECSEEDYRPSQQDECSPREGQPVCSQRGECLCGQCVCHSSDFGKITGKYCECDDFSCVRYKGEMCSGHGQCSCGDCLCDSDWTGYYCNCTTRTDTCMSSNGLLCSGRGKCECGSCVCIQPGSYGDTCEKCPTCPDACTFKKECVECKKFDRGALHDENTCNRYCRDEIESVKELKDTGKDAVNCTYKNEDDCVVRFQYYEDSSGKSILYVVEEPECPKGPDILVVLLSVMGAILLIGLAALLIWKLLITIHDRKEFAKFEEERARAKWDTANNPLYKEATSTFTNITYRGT

**Q.** With `COc1cc(C(=O)NC[C@H](NS(=O)(=O)c2ccccc2)C(=O)O)ccc1N1CCC(NC2=NCCCN2)CC1` [CP4715, (S)-3-(3-methoxy-4-(4-((1,4,5,6-tetrahydropyrimidin-2-yl)amino)piperidin-1-yl)benzamido)-2-(phenylsulfonamido)propanoic acid] as the compound, how does the “time-dependent enhancement of scratching behaviors” value [1] read?
**A.** suppressed

**Q.** And the “scratching behaviors (number of scratchings per minute)” value [2]?
**A.** significantly suppressed (P<0.05)

**Q.** What about the IC50 ([3]; SW480 cells expressing human integrin β3, compounds at 0.001-1 μM, read-out: 50% inhibition concentration (IC50 value) for cell adhesion inhibitory activity) of the same compound?
**A.** ≤ 1 nM

**Q.** And the “cell adhesion inhibitory effect (in words)” value ([3]; SW480 cells expressing integrin αvβ3)?
**A.** high

**Q.** And the “antagonistic effect on GP IIb/IIIa receptor” value [4]?
**A.** antagonistic effect

**Q.** And the “time after administration until which the suppressive effect on scratching was sustained” value [5]?
**A.** 60 min

**Q.** And the “scratching behaviors (number of scratchings per minute)” value ([5]; at 20 minutes or later after administration, Mann-Whitney's U-test vs diluent control)?
**A.** significantly suppressed (P<0.05)

**Q.** What about the “antagonistic effect on αvβ3 integrin” value [6] of the same compound?
**A.** antagonistic effect
